“Also recorded” adds a separate entry of the source.
These substances were tested on NCI-60 cell lines.
Type: cell-based, human
With ERARGYP the “Cell Line with which the peptide (and its tripeptide motif) is associated” value (shortened to “Cell Line with which the peptide”) was “SR Leukemia”.
For RGVFYGK, the “Cell Line with which the peptide” value was “H322-Lung”.
For RHGVRSK, the “Cell Line (NCI-60 cell line the peptide is associated with)” value was “SF-295 CNS”.
For RASCFWD, the “Cell Line the peptide is associated with (peptide recovered from phage library selection on this NCI-60 cell line)” value was “SN12C Renal”.
For VGLGNSA, the “Cell Line (NCI-60 cell line the peptide and its motif are associated with)” value was “SK-MEL-2 Melanoma”.
GAGSGRT was tested, and the “Cell Line the peptide is associated with (peptide recovered from phage library selection on this NCI-60 cell line)” value was “HS 578 T Breast”.
For GRSSVSD, the “Cell Line (NCI-60 cell line the peptide and its motif are associated with)” value was “OVCAR-8 Ovarian”.
For LLSFLGR, the “Cell Line with which the peptide” value was “Molt-4-Leukemia”.
VMGAGVQ was tested, and the “Cell Line the peptide is associated with (peptide recovered from phage library selection on this NCI-60 cell line)” value was “ACHN Renal”.
For ARGVAEY, the “Cell Line (NCI-60 cell line the peptide is associated with)” value was “SF-295 CNS”.
In the case of MPAGLGV, the “Cell Line the peptide is associated with (peptide recovered from phage library selection on this NCI-60 cell line)” value is reported as “RXF393 Renal”.
TRGSGAG was tested, and the “Cell Line the peptide is associated with (peptide recovered from phage library selection on this NCI-60 cell line)” value was “HS 578 T Breast”.
In the case of GVAGGAT, the “Cell Line (NCI-60 cell line the peptide is associated with)” value is reported as “SW620-Colon”.
RAAVSAI was tested, and the “Cell Line with which the peptide” value was “Molt-4-Leukemia”.
In the case of RGSRWSS, the “Cell Line the peptide is associated with (peptide recovered from phage library selection on this NCI-60 cell line)” value is reported as “BT-549 Breast”.
In the case of RGSPLTK, the “Cell Line (NCI-60 cell line the peptide and its motif are associated with)” value is reported as “UACC 257 Melanoma”.
In the case of LMGRASG, the “Cell Line with which the peptide” value is reported as “SR Leukemia”.
For VRLSGRA, the “Cell Line (NCI-60 cell line the peptide is associated with)” value was “SNB-19 CNS; also recorded: SF-539 CNS”.
HADVLVS was tested, and the “Cell Line (NCI-60 cell line the peptide and its motif are associated with)” value was “DU-145 Prostate”.
With DRGLGMS the “Cell Line (NCI-60 cell line the peptide and its motif are associated with)” value was 786-0 Renal.
GVAGLRW was tested, and the “Cell Line (NCI-60 cell line the peptide is associated with)” value was “SW620-Colon”.
In the case of FSLVSFV, the “Cell Line (NCI-60 cell line the peptide and its motif are associated with)” value is reported as “SK-MEL-2 Melanoma”.
For LRSGAGS, the “Cell Line with which the peptide” value was “Molt-4-Leukemia”.
In the case of APLRSGR, the “Cell Line with which the peptide” value is reported as “EKVX-Lung”.
PGSSFVG was tested, and the “Cell Line (NCI-60 cell line the peptide is associated with)” value was “HCT-15 Colon”.
For YAGSGQL, the “Cell Line (NCI-60 cell line the peptide and its motif are associated with)” value was “OVCAR-8 Ovarian”.
For VGSVGLG, the “Cell Line with which the peptide” value was “Hop-62-Lung”.
For GLLSGGT, the “Cell Line (NCI-60 cell line the peptide and its motif are associated with)” value was “IGROV1 Ovarian”.
In the case of AVSKRLP, the “Cell Line with which the peptide” value is reported as “H522-Lung”.
With AGGSLGS the “Cell Line with which the peptide” value was “H23-Lung”.
In the case of PTGEGLR, the “Cell Line (NCI-60 cell line the peptide and its motif are associated with)” value is reported as “SK-MEL-5 Melanoma”.
With LIHAGGQ the “Cell Line the peptide is associated with (peptide recovered from phage library selection on this NCI-60 cell line)” value was “ACHN Renal”.
RLSTFAG was tested, and the “Cell Line (NCI-60 cell line the peptide is associated with)” value was “SNB-19 CNS; also recorded: SF-539 CNS”.
With LTAAVMV the “Cell Line (NCI-60 cell line the peptide is associated with)” value was “SNB-75 CNS”.
GSVLGDY was tested, and the “Cell Line (NCI-60 cell line the peptide is associated with)” value was “COLO-205-Colon”.
In the case of GEVGLGV, the “Cell Line (NCI-60 cell line the peptide is associated with)” value is reported as “HT-29 Colon”.
GVSGTVS was tested, and the “Cell Line (NCI-60 cell line the peptide and its motif are associated with)” value was “IGROV1 Ovarian”.
In the case of MRYELRS, the “Cell Line the peptide is associated with (peptide recovered from phage library selection on this NCI-60 cell line)” value is reported as “SN12C Renal”.
For RRHGLLS, the “Cell Line with which the peptide” value was “K-562-Leukemia”.
In the case of SPGRVAD, the “Cell Line (NCI-60 cell line the peptide and its motif are associated with)” value is reported as “IGROV1 Ovarian”.
In the case of NYGSSFH, the “Cell Line with which the peptide” value is reported as “Hop-62-Lung”.
With RAGRDAP the “Cell Line (NCI-60 cell line the peptide and its motif are associated with)” value was “UACC62 Melanoma”.
For LRVGIGY, the “Cell Line with which the peptide” value was “H23-Lung”.
With RTWGGRM the “Cell Line (NCI-60 cell line the peptide and its motif are associated with)” value was “M14 Melanoma”.
LIRAVSA was tested, and the “Cell Line with which the peptide” value was “H460-Lung”.
ARGRDEG was tested, and the “Cell Line the peptide is associated with (peptide recovered from phage library selection on this NCI-60 cell line)” value was “UO31 Renal”.
In the case of TGVRNSP, the “Cell Line the peptide is associated with (peptide recovered from phage library selection on this NCI-60 cell line)” value is reported as “UO31 Renal”.
RAAGGSR was tested, and the “Cell Line with which the peptide” value was “RPMI-8226-Leukemia”.
With QGGRSGV the “Cell Line the peptide is associated with (peptide recovered from phage library selection on this NCI-60 cell line)” value was “A498 Renal”.
HRLRSMS was tested, and the “Cell Line (NCI-60 cell line the peptide and its motif are associated with)” value was “UACC62 Melanoma”.
In the case of ANGSSKK, the “Cell Line the peptide is associated with (peptide recovered from phage library selection on this NCI-60 cell line)” value is reported as “MDA-MB-231 Breast”.
In the case of GLVASMP, the “Cell Line (NCI-60 cell line the peptide and its motif are associated with)” value is reported as “IGROV1 Ovarian”.
For GSSTLQW, the “Cell Line the peptide is associated with (peptide recovered from phage library selection on this NCI-60 cell line)” value was “TK-10 Renal”.
GGLEQDG was tested, and the “Cell Line the peptide is associated with (peptide recovered from phage library selection on this NCI-60 cell line)” value was “SN12C Renal”.
SFAGRIL was tested, and the “Cell Line the peptide is associated with (peptide recovered from phage library selection on this NCI-60 cell line)” value was “T-47D Breast”.
With TWIGRVS the “Cell Line (NCI-60 cell line the peptide is associated with)” value was “LOX-IMVI Melanoma”.
For PGGLVPG, the “Cell Line (NCI-60 cell line the peptide is associated with)” value was “HT-29 Colon”.
LPGRLRV was tested, and the “Cell Line (NCI-60 cell line the peptide and its motif are associated with)” value was “OVCAR-5 Ovarian”.
SVGAVGG was tested, and the “Cell Line with which the peptide” value was “A549-Lung”.
WDQGSGY was tested, and the “Cell Line (NCI-60 cell line the peptide and its motif are associated with)” value was “OVCAR-4 Ovarian”.
For ANAASSP, the “Cell Line (NCI-60 cell line the peptide and its motif are associated with)” value was “SK-MEL-5 Melanoma”.
In the case of RLSSAPS, the “Cell Line (NCI-60 cell line the peptide and its motif are associated with)” value is reported as “M14 Melanoma”.
In the case of FVGSRGV, the “Cell Line (NCI-60 cell line the peptide is associated with)” value is reported as “LOX-IMVI Melanoma”.
In the case of GLVSVEA, the “Cell Line with which the peptide” value is reported as “A549-Lung”.
With FGIGRGV the “Cell Line (NCI-60 cell line the peptide and its motif are associated with)” value was “SK-MEL-5 Melanoma”.
For VPSGSVR, the “Cell Line the peptide is associated with (peptide recovered from phage library selection on this NCI-60 cell line)” value was “NCI/ADR-RES Breast”.
In the case of RASCVWA, the “Cell Line the peptide is associated with (peptide recovered from phage library selection on this NCI-60 cell line)” value is reported as “MCF-7 Breast”.
In the case of YAAGGST, the “Cell Line (NCI-60 cell line the peptide and its motif are associated with)” value is reported as “A498 Renal” and the “Cell Line the peptide is associated with (peptide recovered from phage library selection on this NCI-60 cell line)” value is reported as “A498 Renal”.
RVSGDGK was tested, and the “Cell Line (NCI-60 cell line the peptide and its motif are associated with)” value was “SK-OV-3-3 Ovarian”.
LLSASLV was tested, and the “Cell Line with which the peptide” value was “K-562-Leukemia”.
In the case of RGVVSAK, the “Cell Line with which the peptide” value is reported as “Hop-92-Lung”.
With AGLGHEG the “Cell Line with which the peptide” value was “H23-Lung”.
In the case of AGRICEG, the “Cell Line with which the peptide” value is reported as “CCRF-CEM Leukemia”.
In the case of AGSVDLV, the “Cell Line (NCI-60 cell line the peptide and its motif are associated with)” value is reported as “SK-MEL-5 Melanoma”.
With FRFVRGS the “Cell Line the peptide is associated with (peptide recovered from phage library selection on this NCI-60 cell line)” value was “HS 578 T Breast”.
In the case of VGSSHGL, the “Cell Line (NCI-60 cell line the peptide and its motif are associated with)” value is reported as “SK-MEL-28 Melanoma”.
With MERVAGR the “Cell Line the peptide is associated with (peptide recovered from phage library selection on this NCI-60 cell line)” value was “SN12C Renal”.
With PIGGLFG the “Cell Line the peptide is associated with (peptide recovered from phage library selection on this NCI-60 cell line)” value was “ACHN Renal”.
In the case of GRLWSRV, the “Cell Line with which the peptide” value is reported as “Hop-92-Lung”.
LAGGWGS was tested, and the “Cell Line (NCI-60 cell line the peptide is associated with)” value was “SF-295 CNS”.

Reference: patent publication US7781565B2 (priority 2006, dated 2010)
